The values below come from PMC3058535 (International Journal of Nanomedicine, 2011).

The target of this test is integrin αvβ3 (Homo sapiens, UniProt P05106+P06756). In words: Competitive ELISA vs NS–RGDfK. It is filed as binding. The following applies: NS–RGDfK 0.5 OD; starting 50 μM. For orientation: An ELISA detects its analyte on a solid surface through an enzyme-linked reagent.

Take `CC(C)(CN)CNC(=O)NCCS(=O)(=O)N[C@@H](CNC(=O)c1ccc(OCCNC2=NCCCN2)cc1)C(=O)O.Cl` [IAC, 4-[2-(3,4,5,6-tetrahydropyrimidin-2-ylamino)-ethyloxy]benzoyl-2-(S)-[N-(3-aminoneopenta-1-carbamyl)]-aminoethylsulfonylamino-h-alanine hydrochloride]: the “competition with NS–RGDfK for binding to integrin αvβ3” value is listed as “did compete with NS–RGDfK for binding to the integrin”.
As for `N=C(N)NCCC[C@@H]1NC(=O)[C@H](CCCCN)NC(=O)[C@@H](Cc2ccccc2)NC(=O)[C@H](CC(=O)O)NC(=O)CNC1=O` [RGDfK, cyclo(Arg-Gly-Asp-D-Phe-Lys)], the entry is “did compete with NS–RGDfK for binding to the integrin”; as for “cyclo-(Arg-Ala-Asp- D-Phe-Lys) (head to tail) [RADfK]”, “did not have any detectable competition with NS–RGDfK”.
